Reference: ChEMBL document CHEMBL1144373, “NMDA-NR2B subtype selectivity of stereoisomeric 2-(1,2,3,4-tetrahydro-1-isoquinolyl)ethanol derivatives” (Bioorg Med Chem Lett, 2005)

Tests used:
[1] = target: Glutamate [NMDA] receptor; experiment: Mean inhibitory constant against porcine N-methyl-D-aspartate (NMDA) glutamate receptor; n=3; type: protein-complex assay, Sus scrofa
[2] = target: Glutamate [NMDA] receptor; experiment: Mean inhibitory concentration against [3H]ifenprodil binding to porcine N-methyl-D-aspartate (NMDA) glutamate receptor; n=1; type: protein-complex assay, Sus scrofa
[3] = target: Glutamate [NMDA] receptor; experiment: Mean inhibitory concentration against [3H]MK-801 binding to porcine N-methyl-D-aspartate (NMDA) glutamate receptor; n=3; type: protein-complex assay, Sus scrofa
[4] = target: Glutamate [NMDA] receptor; experiment: Mean inhibitory concentration against [3H]ifenprodil binding to porcine N-methyl-D-aspartate (NMDA) glutamate receptor; n=3; type: protein-complex assay, Sus scrofa
[5] = target: Glutamate [NMDA] receptor; experiment: Mean inhibitory constant against porcine N-methyl-D-aspartate (NMDA) glutamate receptor; n=1; type: protein-complex assay, Sus scrofa
[6] = target: Glutamate [NMDA] receptor (Homo sapiens) (UniProt Q05586+Q12879+Q13224+O15399+O60391+Q14957+Q8TCU5); experiment: Specific binding of [3H]ifenprodil to N-methyl-D-aspartate (NMDA) glutamate receptor remaining in presence of 100 uM inhibitor; type: protein-complex assay; settings: Sus scrofa
[7] = target: Glutamate NMDA receptor; Grin1/Grin2c (Rattus norvegicus, UniProt P35439+Q00961); experiment: Mean inhibitory concentration against rat N-methyl-D-aspartate (NMDA) glutamate receptor 1a/2C expressed in Xenopus oocytes; type: cell-based, Oocyte
[8] = target: Glutamate NMDA receptor; Grin1/Grin2a (Rattus norvegicus, UniProt P35439+Q00959); experiment: Mean inhibitory concentration against rat N-methyl-D-aspartate (NMDA) glutamate receptor 1a/2A expressed in Xenopus oocytes; type: cell-based, Oocyte
[9] = Mean inhibitory concentration against rat N-methyl-D-aspartate (NMDA) glutamate receptor 1a/2D expressed in Xenopus oocytes; type: cell-based; settings: oocyte
[10] = target: Glutamate NMDA receptor; Grin1/Grin2b (Rattus norvegicus, UniProt P35439+Q00960); experiment: Mean inhibitory concentration against rat N-methyl-D-aspartate (NMDA) glutamate receptor 1a/2B expressed in Xenopus oocytes; type: cell-based, Oocyte
Chain of Glutamate NMDA receptor; Grin1/Grin2b (Q00960 whole entry, other chains not shown): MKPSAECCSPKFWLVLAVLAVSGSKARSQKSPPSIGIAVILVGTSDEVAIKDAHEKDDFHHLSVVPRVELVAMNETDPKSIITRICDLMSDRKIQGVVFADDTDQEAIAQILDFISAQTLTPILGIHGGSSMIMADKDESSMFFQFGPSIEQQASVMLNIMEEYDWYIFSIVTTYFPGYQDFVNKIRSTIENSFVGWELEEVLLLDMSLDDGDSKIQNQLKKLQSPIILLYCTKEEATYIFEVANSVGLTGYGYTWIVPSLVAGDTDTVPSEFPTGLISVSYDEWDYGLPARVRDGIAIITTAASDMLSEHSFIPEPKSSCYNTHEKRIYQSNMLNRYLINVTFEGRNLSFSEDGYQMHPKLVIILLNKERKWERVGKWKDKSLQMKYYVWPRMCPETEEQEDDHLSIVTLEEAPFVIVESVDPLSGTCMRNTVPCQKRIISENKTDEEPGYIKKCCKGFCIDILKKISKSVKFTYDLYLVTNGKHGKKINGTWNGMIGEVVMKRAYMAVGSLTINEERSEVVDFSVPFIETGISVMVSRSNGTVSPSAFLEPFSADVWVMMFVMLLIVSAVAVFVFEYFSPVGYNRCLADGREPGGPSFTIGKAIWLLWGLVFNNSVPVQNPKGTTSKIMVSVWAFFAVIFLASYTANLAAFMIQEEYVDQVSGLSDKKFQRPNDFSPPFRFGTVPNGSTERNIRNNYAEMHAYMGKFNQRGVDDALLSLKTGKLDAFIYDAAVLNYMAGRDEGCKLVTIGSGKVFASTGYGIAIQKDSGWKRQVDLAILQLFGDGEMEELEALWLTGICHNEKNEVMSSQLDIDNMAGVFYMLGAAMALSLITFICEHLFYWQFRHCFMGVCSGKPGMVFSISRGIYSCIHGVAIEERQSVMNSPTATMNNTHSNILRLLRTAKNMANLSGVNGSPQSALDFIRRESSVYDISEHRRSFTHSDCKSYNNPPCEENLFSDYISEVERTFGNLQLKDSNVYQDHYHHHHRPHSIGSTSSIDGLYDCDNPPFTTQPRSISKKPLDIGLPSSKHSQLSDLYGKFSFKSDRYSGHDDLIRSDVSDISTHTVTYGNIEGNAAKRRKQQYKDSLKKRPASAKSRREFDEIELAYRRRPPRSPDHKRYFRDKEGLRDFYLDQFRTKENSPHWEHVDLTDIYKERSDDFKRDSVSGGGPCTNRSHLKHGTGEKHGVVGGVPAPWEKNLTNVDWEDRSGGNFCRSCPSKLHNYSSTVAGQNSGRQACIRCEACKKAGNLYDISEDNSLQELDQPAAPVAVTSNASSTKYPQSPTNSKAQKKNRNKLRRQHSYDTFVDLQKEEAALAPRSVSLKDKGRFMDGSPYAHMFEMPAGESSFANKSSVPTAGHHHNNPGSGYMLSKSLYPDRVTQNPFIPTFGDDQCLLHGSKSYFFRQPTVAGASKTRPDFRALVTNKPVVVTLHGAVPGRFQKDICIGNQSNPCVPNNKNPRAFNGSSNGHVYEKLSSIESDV

Chain of Glutamate NMDA receptor; Grin1/Grin2a (Q00959 whole entry, other chains not shown): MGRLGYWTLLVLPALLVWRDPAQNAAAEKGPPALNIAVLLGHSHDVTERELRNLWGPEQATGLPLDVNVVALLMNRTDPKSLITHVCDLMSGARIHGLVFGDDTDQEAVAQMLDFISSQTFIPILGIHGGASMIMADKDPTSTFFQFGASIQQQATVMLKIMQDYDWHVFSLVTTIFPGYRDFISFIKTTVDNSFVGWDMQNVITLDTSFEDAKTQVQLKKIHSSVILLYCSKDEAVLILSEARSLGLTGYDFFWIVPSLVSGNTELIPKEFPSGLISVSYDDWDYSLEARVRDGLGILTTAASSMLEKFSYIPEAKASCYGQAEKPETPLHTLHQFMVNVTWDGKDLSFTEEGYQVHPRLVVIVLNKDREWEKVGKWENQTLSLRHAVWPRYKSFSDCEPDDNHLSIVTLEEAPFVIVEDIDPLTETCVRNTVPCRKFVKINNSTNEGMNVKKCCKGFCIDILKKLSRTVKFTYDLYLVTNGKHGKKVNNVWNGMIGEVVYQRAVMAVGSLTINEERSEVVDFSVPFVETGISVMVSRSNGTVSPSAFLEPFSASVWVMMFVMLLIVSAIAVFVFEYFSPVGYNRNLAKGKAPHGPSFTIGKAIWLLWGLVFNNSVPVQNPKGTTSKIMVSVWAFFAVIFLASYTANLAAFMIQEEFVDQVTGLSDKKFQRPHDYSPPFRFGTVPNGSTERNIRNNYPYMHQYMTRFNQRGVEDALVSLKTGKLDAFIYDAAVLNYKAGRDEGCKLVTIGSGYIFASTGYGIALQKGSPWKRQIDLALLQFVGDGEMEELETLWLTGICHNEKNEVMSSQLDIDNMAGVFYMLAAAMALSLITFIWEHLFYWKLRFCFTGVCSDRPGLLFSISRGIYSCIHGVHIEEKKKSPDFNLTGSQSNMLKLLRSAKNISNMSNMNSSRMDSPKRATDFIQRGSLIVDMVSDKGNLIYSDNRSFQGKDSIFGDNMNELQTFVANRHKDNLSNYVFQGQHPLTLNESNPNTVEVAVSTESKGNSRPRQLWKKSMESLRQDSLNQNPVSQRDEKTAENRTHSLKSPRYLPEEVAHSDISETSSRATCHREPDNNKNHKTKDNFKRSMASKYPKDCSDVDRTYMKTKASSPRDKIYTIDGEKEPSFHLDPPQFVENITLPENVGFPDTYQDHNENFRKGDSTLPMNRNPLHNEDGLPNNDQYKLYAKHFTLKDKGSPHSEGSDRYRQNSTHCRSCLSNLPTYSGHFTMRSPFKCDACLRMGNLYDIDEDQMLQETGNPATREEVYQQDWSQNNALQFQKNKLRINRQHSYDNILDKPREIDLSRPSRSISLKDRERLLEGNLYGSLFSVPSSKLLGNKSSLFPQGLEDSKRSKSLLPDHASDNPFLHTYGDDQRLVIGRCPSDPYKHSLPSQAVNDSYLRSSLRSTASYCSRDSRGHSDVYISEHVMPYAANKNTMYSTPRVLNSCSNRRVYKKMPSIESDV
Chain of Glutamate NMDA receptor; Grin1/Grin2c (Q00961 whole entry, other chains not shown): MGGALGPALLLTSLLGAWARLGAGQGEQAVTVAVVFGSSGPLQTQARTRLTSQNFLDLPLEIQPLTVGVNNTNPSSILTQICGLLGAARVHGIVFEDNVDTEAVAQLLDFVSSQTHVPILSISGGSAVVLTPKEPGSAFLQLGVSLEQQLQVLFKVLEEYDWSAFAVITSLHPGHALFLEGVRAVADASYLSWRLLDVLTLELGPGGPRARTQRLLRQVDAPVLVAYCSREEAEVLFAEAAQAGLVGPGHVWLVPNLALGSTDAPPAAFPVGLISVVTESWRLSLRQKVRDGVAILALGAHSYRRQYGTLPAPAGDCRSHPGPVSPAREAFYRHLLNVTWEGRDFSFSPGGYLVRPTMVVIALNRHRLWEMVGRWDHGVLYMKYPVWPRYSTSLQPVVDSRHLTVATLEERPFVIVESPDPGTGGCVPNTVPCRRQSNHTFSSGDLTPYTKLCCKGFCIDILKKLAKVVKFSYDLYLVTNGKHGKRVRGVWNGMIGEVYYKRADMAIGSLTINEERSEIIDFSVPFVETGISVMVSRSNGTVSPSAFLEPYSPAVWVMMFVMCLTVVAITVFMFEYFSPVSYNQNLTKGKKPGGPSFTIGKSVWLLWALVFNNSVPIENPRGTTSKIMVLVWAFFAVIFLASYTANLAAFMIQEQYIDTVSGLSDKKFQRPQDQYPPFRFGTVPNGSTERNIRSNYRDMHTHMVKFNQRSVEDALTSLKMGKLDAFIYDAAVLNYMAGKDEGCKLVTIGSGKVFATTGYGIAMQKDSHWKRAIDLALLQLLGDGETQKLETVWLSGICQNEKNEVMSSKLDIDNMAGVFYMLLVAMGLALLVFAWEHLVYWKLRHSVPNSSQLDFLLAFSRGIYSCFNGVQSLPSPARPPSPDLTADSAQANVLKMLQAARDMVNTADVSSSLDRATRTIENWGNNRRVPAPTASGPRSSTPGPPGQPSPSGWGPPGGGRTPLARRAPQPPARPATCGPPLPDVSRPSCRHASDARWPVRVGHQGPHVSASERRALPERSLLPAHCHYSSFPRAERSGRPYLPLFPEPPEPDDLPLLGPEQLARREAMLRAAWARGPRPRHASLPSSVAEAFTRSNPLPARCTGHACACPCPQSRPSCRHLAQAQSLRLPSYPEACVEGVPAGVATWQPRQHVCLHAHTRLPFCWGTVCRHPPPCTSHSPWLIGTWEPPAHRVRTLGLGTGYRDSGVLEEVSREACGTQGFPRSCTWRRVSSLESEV

| Ki [1] [µM] | IC50 [2] [µM] | IC50 [3] [µM] | IC50 [4] [µM] | Ki [5] [µM] | Binding [6] [%] | IC50 [7] [µM] | IC50 [8] [µM] | IC50 [9] [µM] | IC50 [10] [µM] | Compound |
| --- | --- | --- | --- | --- | --- | --- | --- | --- | --- | --- |
| 5.8 | 243 | 110 | – | – | – | – | – | – | – | COc1ccc([C@H](O)C[C@@H]2NCCc3cc(OC)c(OC)cc32)cc1 |
| 6.7 | – | 40 | 43 | – | – | – | – | – | – | COc1cc2c(cc1OC)[C@@H](C[C@H](O)c1ccc(Cl)cc1)NCC2 |
| 2.6 | – | 34 | 95 | – | – | – | – | – | – | COc1cc2c(cc1OC)[C@H](C[C@@H](O)c1ccc(Cl)cc1)NCC2 |
| – | – | – | – | 22 | 34 | – | – | – | – | COc1ccc([C@H](O)C[C@H]2c3cc(OC)c(OC)cc3CCN2C)cc1 |
| 0.38 | – | 120 | – | – | 87 | – | – | – | – | COc1ccc([C@@H](O)C[C@@H]2c3cc(OC)c(OC)cc3CCN2C)cc1 |
| 0.26 | 290 | 37 | – | – | – | – | – | – | – | COc1cc2c(cc1OC)[C@@H](C[C@@H](O)c1ccc(Cl)cc1)NCC2 |
| 11 | 420 | 140 | – | – | – | – | – | – | – | COc1ccc([C@@H](O)C[C@H]2NCCc3cc(OC)c(OC)cc32)cc1 |
| 0.007 | – | 56 | 100 | – | – | – | – | – | – | COc1cc2c(cc1OC)[C@@H](C[C@@H](O)c1ccc(Cl)cc1)N(C)CC2 |
| – | – | 29 | 14 | – | – | – | – | – | – | COc1ccc([C@@H](O)C[C@@H]2NCCc3cc(OC)c(OC)cc32)cc1 |
| 0.11 | – | 31 | 24 | – | – | – | – | – | – | COc1cc2c(cc1OC)[C@@H](C[C@H](O)c1ccc(Cl)cc1)N(C)CC2 |
| 0.92 | – | 7.4 | 1.1 | – | – | 24.9 | 104 | 48.4 | 10.5 | COc1cc2c(cc1OC)[C@H](C[C@H](O)c1ccc(Cl)cc1)NCC2 |
| 0.72 | – | 120 | – | – | 63 | – | – | – | – | COc1ccc([C@H](O)C[C@H]2NCCc3cc(OC)c(OC)cc32)cc1 |
| 2.7 | – | 45 | 52 | – | – | – | – | – | – | COc1cc2c(cc1OC)[C@H](C[C@@H](O)c1ccc(Cl)cc1)N(C)CC2 |
| 2.7 | – | 4.6 | 0.24 | – | – | 155 | 107 | 341 | 3.16 | COc1ccc([C@@H](O)C[C@H]2c3cc(OC)c(OC)cc3CCN2C)cc1 |
| 0.5 | – | 0.96 | 0.059 | – | – | 5.29 | 137 | 27.5 | 1.32 | COc1cc2c(cc1OC)[C@H](C[C@H](O)c1ccc(Cl)cc1)N(C)CC2 |
| 0.06 | – | – | – | – | 50 | – | – | – | – | COc1ccc([C@H](O)C[C@@H]2c3cc(OC)c(OC)cc3CCN2C)cc1 |
